Data as given in patent US11203582B2, “Benzamide derivatives for inhibiting endoplasmic reticulum (ER) stress” (The Board of Regents of the University of Oklahoma, priority 2017, dated 2021).
Read-outs that look alike come from different tables or passages of the source.

System: INS-1 cells
Experiment: Cell survival assay, intracellular ATP (CellTiter-Glo), INS-1 cells treated with Tm
Assay type: cell-based, rat
Conditions: for EC50: read-out: EC50; for improvement of EC50 value over the corresponding ethylene derivative: methylene vs ethylene linker (9e vs 8d; 11d vs 11b)
Description: A structure-activity-relationship (SAR) study was thus conducted to improve the weak potency of lead compound 1. Newly synthesized or commercially available compounds were tested for their β-cell-protective activity against ER stress in rat INS-1 β-cells. […] The maximum activities and the concentrations that reach half-maximal activity (EC50) of the compounds were evaluated by the degree of increase in viability of INS-1 cells co-treated with the compounds in the presence of Tm compared with Tm treatment alone. Maximum activity value in the tables is reported as % rescue from Tm (0.1 μg/mL)-induced reduction of cell viability. The values for Tm treatment alone and control (DMSO, without Tm) treatment are designated as 0% and 100%, respectively in all tables. EC50 values (the concentrations that reach half-maximal activity) for INS-1 cell viability were calculated with GraphPad Prism from the data of ten 2-fold serial titration points in all tables. All experiments were performed in triplicate in all tables.
INS-1 cells were cultured in RPMI 1640 (Corning, N.Y., USA) supplemented with 10% FBS (Atlanta Biologicals, Norcross, Ga.), HEPES (10 mM, Life Technologies, CA, USA), sodium pyruvate (1 mM, Corning), 2-mercaptoethanol (50 μM, Sigma, St Louis, Mo., USA) and antibiotics (100 UI/mL penicillin and 100 μg/mL streptomycin, Corning). βTC6 cells were cultured in DMEM (Corning) with 15% FBS, sodium pyruvate (1 mM, Corning), non-essential amino acids (1 mM, Thermo, Ill., USA), GlutaMAX (1 mM, Life Technologies) and antibiotics (100 UI/mL penicillin and 100 μg/mL streptomycin). All cells were grown at 37° C. in a humidified 5% CO2 atmosphere.
INS-1 cells or βTC6 cells were seeded at 3×10^3 cells/well in a 384-well plate and treated with compounds at the indicated concentrations. After 3 d treatment, the medium was aspirated and 20 μL/well of CellTiter-Glo reagent (Promega, WI, USA) was added for the detection of intracellular ATP levels. Cell viability was measured with an EnVision multilabel plate reader (PerkinElmer, MA, USA).

[1] = Table 5, INS-1 cell viability, Tm 0.1 μg/mL, 72 h
[2] = Table 5, INS-1 cells, Tm 0.1 μg/mL, 72 h, Tm alone 0%, DMSO control 100%
[3] = Table 3, INS-1 cell viability, Tm 0.1 μg/mL, 72 h
[4] = Table 3, INS-1 cells, Tm 0.1 μg/mL, 72 h, Tm alone 0%, DMSO control 100%
[5] = INS-1 cells, Tm-induced ER stress
[6] = Table 4, INS-1 cell viability, Tm 0.1 μg/mL, 72 h
[7] = Table 4, INS-1 cells, Tm 0.1 μg/mL, 72 h, Tm alone 0%, DMSO control 100%
[8] = Table 2, INS-1 cell viability, Tm 0.1 μg/mL, 72 h
[9] = Table 2, INS-1 cells, Tm 0.1 μg/mL, 72 h, Tm alone 0%, DMSO control 100%

## O=C(NCc1ccccc1Cl)c1cccc(CN2CCCCC2)c1 [Compound 12c]
[1]
  EC50: 2.04 ± 0.18 µM
[2]
  Maximum activity (% rescue): 93% ± 7%

## Cc1ccc(C(=O)NCCc2ccccc2)cc1 [Compound 10h]
[3]
  EC50: 20 ± 5.4 µM
[4]
  Maximum activity (% rescue): 25% ± 5%

## COc1ccc(C(=O)NCCc2cccc(Cl)c2)cc1OC [Compound 8h]
Table 1, INS-1 cell viability, Tm 0.1 μg/mL, 72 h
  EC50: 24 ± 2.1 µM
Table 1, INS-1 cells, Tm 0.1 μg/mL, 72 h, Tm alone 0%, DMSO control 100%
  Maximum activity (% rescue): 46% ± 17%

## O=C(NCCc1ccccc1)c1ccc(CN2CCCCC2)cc1 [Compound 10l]
[5]
  maximum activity (β-cell-protective activity): 87%
  EC50: 21 µM
[3]
  EC50: 21 ± 3.5 µM
[4]
  Maximum activity (% rescue): 87% ± 9%
[6]
  EC50: 21 ± 3.5 µM
[7]
  Maximum activity (% rescue): 87% ± 6%

## O=C(NCc1ccc(Cl)cc1)c1cccc(CN2CCCCC2)c1 [Compound 12e]
[1]
  EC50: 0.24 ± 0.06 µM
[2]
  Maximum activity (% rescue): 93% ± 13%

## O=C(NCCc1ccccc1)c1cc(F)c(F)c(F)c1F [Compound 10p]
[4]
  Maximum activity (% rescue): <0 % rescue

## O=C(NCc1ccccc1)c1cccc(CN2CCCCC2)c1 [Compound 12b]
[1]
  EC50: 0.352 ± 0.062 µM
[2]
  Maximum activity (% rescue): 95% ± 8%

## O=C(NCCc1ccccc1)c1cccc([N+](=O)[O-])c1 [Compound 10d]
[4]
  Maximum activity (% rescue): <0 % rescue

## COc1ccc(C(=O)NCCc2ccccc2)cc1C [Compound 10n]
[3]
  EC50: 15 ± 3.2 µM
[4]
  Maximum activity (% rescue): 56% ± 8%

## O=C(NCCc1ccc(Cl)c(Cl)c1)c1ccc(CN2CCCCC2)cc1 [Compound 11b]
[5]
  EC50: 24 ± 2.7 µM
[7]
  Maximum activity (% rescue): 71% ± 11%

## O=C(NCCc1ccccc1)c1ccc(CN2CCCC2)cc1 [Compound 10k]
[5]
  maximum activity (β-cell-protective activity): 31%
[3]
  EC50: 11 ± 1.9 µM
[4]
  Maximum activity (% rescue): 31% ± 7%

## CS(=O)(=O)Nc1cccc(C(=O)NCCc2ccccc2)c1 [Compound 10g]
[3]
  EC50: 25 ± 2.1 µM
[4]
  Maximum activity (% rescue): 24% ± 8%

## CC(C)Sc1ccccc1C(=O)NCCc1ccccc1 [Compound 10b]
[3]
  EC50: > 30 µM
[4]
  Maximum activity (% rescue): 30% ± 8%

## O=C(NCc1ccc(Cl)c(Cl)c1)c1ccc(CN2CCCCC2)cc1 [Compound 11d]
[5]
  EC50: 1.8 ± 0.2 µM
[7]
  Maximum activity (% rescue): 78% ± 10%
  improvement of EC50 value over the corresponding ethylene derivative: 13 fold

## Cc1ccccc1C(=O)NCCc1ccccc1 [Compound 10a]
[4]
  Maximum activity (% rescue): 6% ± 5%

## O=C(NCCc1cccc(Cl)c1)c1ccc2c(c1)OCCO2 [Compound 1, N-(3-chlorophenethyl)-2,3-dihydrobenzo[b][1,4]dioxine-6-carboxamide]
[5]
  maximum activity (β-cell-protective activity): 42%
Rattus norvegicus, INS1, INS-1 cells, Tm-induced ER stress
  EC50: 21 µM
Rattus norvegicus, INS1, Table 1, INS-1 cell viability, Tm 0.1 μg/mL, 72 h
  EC50: 21 ± 5.7 µM
Rattus norvegicus, INS1, Table 1, INS-1 cells, Tm 0.1 μg/mL, 72 h, Tm alone 0%, DMSO control 100%, read-out: Maximum activity (% rescue)
  Emax: 42%

## COc1ccc(CNC(=O)c2cccc(CN3CCCCC3)c2)cc1 [Compound 13b]
[1]
  EC50: 1.12 ± 0.21 µM
[2]
  Maximum activity (% rescue): 93% ± 5%

## C#CCOc1ccc(C(=O)NCCc2ccccc2)cc1 [Compound 10i]
[3]
  EC50: > 30 µM
[4]
  Maximum activity (% rescue): 54% ± 8%

## O=C(NCc1cccc(Cl)c1)c1cccc(CN2CCCCC2)c1 [Compound 12d]
[1]
  EC50: 0.405 ± 0.057 µM
[2]
  Maximum activity (% rescue): 90% ± 11%

## O=C(NCCc1ccccc1)c1ccc(F)c(F)c1F [Compound 10o]
[3]
  EC50: 9.9 ± 2.1 µM
[4]
  Maximum activity (% rescue): 23% ± 6%

## O=C(NCc1ccc(Cl)cc1)c1ccc(CN2CCCCC2)cc1 [Compound 11c]
[6]
  EC50: 9.5 ± 1.1 µM
[7]
  Maximum activity (% rescue): 77% ± 7%

## O=C(NCCc1ccccc1)c1ccc(Cl)c(Cl)c1 [Compound 10m]
[3]
  EC50: 17 ± 6.1 µM
[4]
  Maximum activity (% rescue): 42% ± 11%

## O=C(NCc1cccc(Br)c1)c1ccc(CN2CCCCC2)cc1 [Compound 12h]
[1]
  EC50: 4.9 ± 0.7 µM
[2]
  Maximum activity (% rescue): 81% ± 12%

## COc1cccc(CNC(=O)c2cccc(CN3CCCCC3)c2)c1 [Compound 13a]
[1]
  EC50: 0.964 ± 0.135 µM
[2]
  Maximum activity (% rescue): 92% ± 10%

## O=C(NCCc1ccc(Cl)cc1)c1ccc(CN2CCCCC2)cc1 [Compound 11a]
[6]
  EC50: 21 ± 4.2 µM
[7]
  Maximum activity (% rescue): 82% ± 10%

## CN(C)S(=O)(=O)c1ccc(C(=O)NCCc2ccccc2)cc1 [Compound 10j]
[3]
  EC50: 19 ± 2.1 µM
[4]
  Maximum activity (% rescue): 37% ± 6%

## O=C(NCc1ccccc1Br)c1ccc2c(c1)OCCO2 [Compound 9b]
[8]
  EC50: 25 ± 2.1 µM
[9]
  Maximum activity (% rescue): 38% ± 14%

## CCOc1cccc(C(=O)NCCc2ccccc2)c1 [Compound 10f]
[3]
  EC50: 26 ± 4.5 µM
[4]
  Maximum activity (% rescue): 49% ± 11%

## Nc1cccc(C(=O)NCCc2ccccc2)c1 [Compound 10e]
[4]
  Maximum activity (% rescue): <0 % rescue

## O=C(NCc1ccc(Cl)c(Cl)c1)c1ccc2c(c1)OCCO2 [Compound 9f]
[8]
  EC50: 3.6 ± 0.9 µM
[9]
  Maximum activity (% rescue): 68% ± 10%

## O=C(NCc1cccc(Br)c1)c1ccc2c(c1)OCCO2 [Compound 9d]
[8]
  EC50: 5.5 ± 0.7 µM
[9]
  Maximum activity (% rescue): 69% ± 9%

## O=C(NCc1cccc(Cl)c1)c1ccc2c(c1)OCCO2 [Compound 9c]
[8]
  EC50: 9.5 ± 1.2 µM
[9]
  Maximum activity (% rescue): 57% ± 11%

## O=C(NCc1ccccc1Cl)c1ccc(CN2CCCCC2)cc1 [Compound 12f]
[1]
  EC50: 13 ± 1.6 µM
[2]
  Maximum activity (% rescue): 87% ± 15%

## O=C(NCc1cccc(Cl)c1)c1ccc(CN2CCCCC2)cc1 [Compound 12g]
[1]
  EC50: 2.2 ± 0.3 µM
[2]
  Maximum activity (% rescue): 80% ± 9%

## O=C(NCc1ccc(Cl)cc1)c1ccc2c(c1)OCCO2 [Compound 9e]
[5]
  maximum activity (β-cell-protective activity): 69%
  EC50: 2.8 µM
[9]
  Maximum activity (% rescue): 69% ± 12%
  improvement of EC50 value over the corresponding ethylene derivative: ~6 fold

## O=C(NCc1ccccc1Cl)c1ccc2c(c1)OCCO2 [Compound 9a]
[8]
  EC50: 25 ± 6.9 µM
[9]
  Maximum activity (% rescue): 43% ± 12%

## O=C(NCc1ccc(Cl)cc1)c1ccccc1CN1CCCCC1 [Compound 12a]
[1]
  EC50: 6.9 ± 1.2 µM
[2]
  Maximum activity (% rescue): 73% ± 13%

## O=C(NCCc1ccccc1)c1cccc(F)c1 [Compound 10c]
[4]
  Maximum activity (% rescue): <0 % rescue

## O=C(NCc1cccc(C(F)(F)F)c1)c1cccc(CN2CCCCC2)c1 [Compound 13c]
[1]
  EC50: 0.246 ± 0.043 µM
[2]
  Maximum activity (% rescue): 91% ± 14%
